In patent US20160120863A1, “SLC2A TRANSPORTER INHIBITORS” (IOMET PHARMA LTD., priority 2013, published 2016):

Assays:
[1] = target: T1, human GLUT2 (Homo sapiens, UniProt P11168); assay: [3H]-deoxy-D-glucose uptake assay, GLUT2; type: cell-based; details: [3H]-deoxy-D-glucose uptake in HEK293 cells stably expressing human GLUT2
T1 construct: expressed in transfected cells
T1 sequence (P11168 1-524): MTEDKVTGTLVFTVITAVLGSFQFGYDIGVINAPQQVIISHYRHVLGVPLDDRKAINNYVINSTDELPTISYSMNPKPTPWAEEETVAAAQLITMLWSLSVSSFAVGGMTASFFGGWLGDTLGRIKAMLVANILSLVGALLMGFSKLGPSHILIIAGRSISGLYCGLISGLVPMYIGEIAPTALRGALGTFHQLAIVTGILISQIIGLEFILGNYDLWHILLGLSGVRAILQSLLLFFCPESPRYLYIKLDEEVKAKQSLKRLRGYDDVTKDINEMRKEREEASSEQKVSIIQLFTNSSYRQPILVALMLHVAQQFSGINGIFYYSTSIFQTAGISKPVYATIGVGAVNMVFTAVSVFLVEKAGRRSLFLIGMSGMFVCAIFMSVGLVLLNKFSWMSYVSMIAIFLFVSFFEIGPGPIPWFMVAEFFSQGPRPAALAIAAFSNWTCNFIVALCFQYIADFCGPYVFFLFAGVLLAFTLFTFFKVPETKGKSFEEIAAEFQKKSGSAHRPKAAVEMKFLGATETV
Procedure: HEK293 cells were engineered to stably express either human GLUT1, GLUT2, GLUt3 or GLUT4 by transfection with the pReceiver-Lv105 plasmid, containing either hGLUT1, hGLUT2, hGLUT3, or hGLUT4 gene constructs with lipofectamine 2000, hGLUT1- hGLUT2- hGLUT3- or hGLUT4-overexpressing polyclonal populations were isolated under purinomycin selective pressure (1 μg/ml) and maintained in Dulbecco's modified Eagle's medium supplemented with 1 μg/ml purinomycin+10% foetal bovine serum (FBS).
60,000 cells per well were seeded overnight into poly-D-lysine coasted 96-well plates. […] 90 μl of test compounds were added in glucose-free uptake buffer and cells were incubated at 37° C. for 30 min.
Cells were then washed twice with ice-cold PBS and 100 μl of Microscint-20 was added per well. Glucose uptake was quantified with a scintillation counter. The half maximal inhibitory concentration (IC50) (a measure of the effectiveness of the test compound in inhibiting glucose uptake) was determined.

[2] = target: T2, human GLUT1 (Homo sapiens, UniProt P11166); assay: [3H]-deoxy-D-glucose uptake assay, GLUT1; type: cell-based; details: [3H]-deoxy-D-glucose uptake in HEK293 cells stably expressing human GLUT1
T2 construct: expressed in transfected cells
T2 sequence (P11166 1-492): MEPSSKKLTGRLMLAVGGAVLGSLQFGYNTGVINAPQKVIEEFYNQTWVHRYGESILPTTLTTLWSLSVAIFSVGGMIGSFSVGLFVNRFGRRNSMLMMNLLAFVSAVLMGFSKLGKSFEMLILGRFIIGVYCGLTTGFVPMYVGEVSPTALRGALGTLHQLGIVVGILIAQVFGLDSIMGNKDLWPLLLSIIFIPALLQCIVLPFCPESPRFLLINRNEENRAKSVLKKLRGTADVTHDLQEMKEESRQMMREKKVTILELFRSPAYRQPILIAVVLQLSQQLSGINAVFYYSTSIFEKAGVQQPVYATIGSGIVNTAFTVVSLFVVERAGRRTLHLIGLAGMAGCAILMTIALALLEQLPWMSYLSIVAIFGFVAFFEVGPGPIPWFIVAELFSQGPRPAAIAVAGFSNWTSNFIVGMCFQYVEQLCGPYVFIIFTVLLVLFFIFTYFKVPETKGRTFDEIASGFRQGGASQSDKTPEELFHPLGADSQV
Procedure, shortened: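 HEK293 cells stably overexpressing human GLUT1 or GLUT2, seeded at 60,000 per well, treated with compounds in glucose-free uptake buffer for 30 min at 37 °C. [3H]-deoxy-D-glucose uptake quantified by scintillation counting after ice-cold PBS washes; IC50 determined.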

Row | GLUT2 pIC50 [1] | GLUT1 pIC50 [2] | Structure (SMILES)
1 | +++ (pIC50 ≧ 6.00) | +++ (pIC50 ≧ 6.00) | CC(C)c1cn2c(CN3CCOCC3)c(-c3ccc(Cl)cc3)nc2cn1 [Compound 217]
2 | +++ (pIC50 ≧ 6.00) | +++ (pIC50 ≧ 6.00) | CC(=O)N1CCN(Cc2c(-c3ccc(Cl)cc3)nc3cnc(-c4ccccc4C#N)cn23)CC1 [Compound 224]
3 | +++ (pIC50 ≧ 6.00) | +++ (pIC50 ≧ 6.00) | O=C1CCN(Cc2c(-c3ccc(Cl)cc3)nc3ccc(-c4ccccc4)cn23)CCN1 [Compound 227]
4 | +++ (pIC50 ≧ 6.00) | +++ (pIC50 ≧ 6.00) | CN1CCN(Cc2c(-c3ccc(Cl)cc3)nc3ccc(-c4ccccc4)cn23)CCC1=O [Compound 232]
5 | +++ (pIC50 ≧ 6.00) | +++ (pIC50 ≧ 6.00) | N#Cc1cccc(F)c1-c1ccc2nc(-c3ccc(Cl)cc3)c(CN3CCOCC3)n2c1 [Compound 236]
6 | +++ (pIC50 ≧ 6.00) | +++ (pIC50 ≧ 6.00) | CN1CCN(Cc2c(-c3ccc(Cl)cc3)nc3ccc(-c4ccccc4C#N)cn23)CC1=O [Compound 247]
7 | +++ (pIC50 ≧ 6.00) | +++ (pIC50 ≧ 6.00) | CCC(=O)N1CCN(Cc2c(-c3ccc(Cl)cc3)nc3cnc(C4CC4)cn23)CC1 [Compound 253]
8 | ++ (pIC50 5.00-5.99) | +++ (pIC50 ≧ 6.00) | CC(=O)N1CCN(Cc2c(-c3ccc(Cl)cc3)nc3ccc(NS(C)(=O)=O)cn23)CC1 [Compound 259]
9 | +++ (pIC50 ≧ 6.00) | +++ (pIC50 ≧ 6.00) | Clc1ccc(-c2nc3cnc(C4CC4)cn3c2CN2CCn3ncnc3C2)cc1 [Compound 261]
10 | ++ (pIC50 5.00-5.99) | +++ (pIC50 ≧ 6.00) | N#Cc1ccccc1-c1cn2c(CN3CCOCC3)c(-c3ccc(Cl)cc3)nc2cn1 [Compound 269]
11 | +++ (pIC50 ≧ 6.00) | +++ (pIC50 ≧ 6.00) | O=C1CN(Cc2c(-c3ccc(Cl)cc3Cl)nc3cnc(C4CC4)cn23)CCN1 [Compound 272]
12 | ++ (pIC50 5.00-5.99) | ++ (pIC50 5.00-5.99) | O=C1CN(Cc2c(-c3ccc(Cl)cc3)nc3ccc(-c4ncon4)cn23)CCN1 [Compound 278]
13 | ++ (pIC50 5.00-5.99) | +++ (pIC50 ≧ 6.00) | CC(=O)N1CCN(Cc2c(-c3ccc(Cl)cc3)nc3ccc(N(C)S(C)(=O)=O)cn23)CC1 [Compound 292]
14 | +++ (pIC50 ≧ 6.00) | +++ (pIC50 ≧ 6.00) | O=C1CN(Cc2c(-c3ccc(Cl)cc3)nc3ccc(-c4ccccn4)cn23)CCN1 [Compound 294]
15 | +++ (pIC50 ≧ 6.00) | +++ (pIC50 ≧ 6.00) | CC(=O)N1CCN(Cc2c(-c3ccc(Cl)cc3)nc3ccc(-c4ccccn4)cn23)CC1 [Compound 295]
16 | +++ (pIC50 ≧ 6.00) | +++ (pIC50 ≧ 6.00) | Clc1ccc(-c2nc3ccc(-c4ccccn4)cn3c2CN2CCn3ncnc3C2)c(Cl)c1 [Compound 299]
17 | ++ (pIC50 5.00-5.99) | +− (pIC50 < 4.00) | CCOC(=O)Cc1c(-c2ccc(Cl)cc2)nc2ccc(-c3ccccc3)cn12 [Compound 302]
18 | +− (pIC50 < 4.00) | ++ (pIC50 5.00-5.99) | CN(c1ccc2nc(-c3ccc(Cl)cc3)c(CN3CCNCC3)n2c1)S(C)(=O)=O [Compound 304]
19 | +− (pIC50 < 4.00) | +− (pIC50 < 4.00) | c1ccc(-c2ccc3nc(C4CCOCC4)c(CN4CCOCC4)n3c2)cc1 [Compound 305]

Row | GLUT2 pIC50 [1] | GLUT1 pIC50 [2] | Structure (SMILES)
20 | ++ (pIC50 5.00-5.99) | +++ (pIC50 ≧ 6.00) | COCC(=O)N1CCN(Cc2c(-c3ccc(Cl)cc3Cl)nc3ccc(-c4ncon4)cn23)CC1 [Compound 307]
21 | +++ (pIC50 ≧ 6.00) | +++ (pIC50 ≧ 6.00) | CC(C)(O)C(=O)N1CCN(Cc2c(-c3ccc(Cl)cc3)nc3ccc(-c4ccccc4)cn23)CC1 [Compound 308]
22 | +++ (pIC50 ≧ 6.00) | +++ (pIC50 ≧ 6.00) | CC(=O)N1CCN(Cc2c(-c3ccc(Cl)cc3Cl)nc3ccc(-c4ncon4)cn23)CC1 [Compound 312]
23 | +− (pIC50 < 4.00) | ++ (pIC50 5.00-5.99) | COCCS(=O)(=O)Nc1ccc2nc(-c3ccc(Cl)cc3)c(CN3CCN(C(C)=O)CC3)n2c1 [Compound 315]
24 | ++ (pIC50 5.00-5.99) | ++ (pIC50 5.00-5.99) | CC(=O)N1CCN(Cc2c(-c3ccc(Cl)cc3)nc3ccc(NS(=O)(=O)C(C)C)cn23)CC1 [Compound 317]
25 | ++ (pIC50 5.00-5.99) | +++ (pIC50 ≧ 6.00) | CC(=O)N1CCN(Cc2c(-c3ccc(Cl)cc3)nc3ccc(NS(=O)(=O)C4CC4)cn23)CC1 [Compound 318]
26 | ++ (pIC50 5.00-5.99) | +++ (pIC50 ≧ 6.00) | CCCS(=O)(=O)Nc1ccc2nc(-c3ccc(Cl)cc3)c(CN3CCN(C(C)=O)CC3)n2c1 [Compound 319]
27 | +++ (pIC50 ≧ 6.00) | +++ (pIC50 ≧ 6.00) | CC(=O)N1CCN(Cc2c(-c3ccc(Cl)cc3)nc3ccc(N4CCCS4(=O)=O)cn23)CC1 [Compound 320]
28 | +++ (pIC50 ≧ 6.00) | +++ (pIC50 ≧ 6.00) | Clc1ccc(-c2nc3cnc(C4CC4)cn3c2CN2CCn3ncnc3C2)c(Cl)c1 [Compound 323]
29 | ++ (pIC50 5.00-5.99) | +++ (pIC50 ≧ 6.00) | CN(c1ccc2nc(-c3ccc(Cl)cc3)c(CN3CCn4ncnc4C3)n2c1)S(C)(=O)=O [Compound 324]
30 | ++ (pIC50 5.00-5.99) | +++ (pIC50 ≧ 6.00) | CN(c1ccc2nc(-c3ccc(Cl)cc3)c(CN3CCNC(=O)C3)n2c1)S(C)(=O)=O [Compound 325]
31 | ++ (pIC50 5.00-5.99) | +++ (pIC50 ≧ 6.00) | CC(=O)N1CCN(Cc2c(-c3ccc(Cl)cc3)nc3ccc(N(C)S(=O)(=O)C4CC4)cn23)CC1 [Compound 327]
32 | ++ (pIC50 5.00-5.99) | ++ (pIC50 5.00-5.99) | Fc1cncc(F)c1-c1ccc2nc(-c3ccc(Cl)cc3)c(CN3CCOCC3)n2c1 [Compound 328]
33 | +++ (pIC50 ≧ 6.00) | +++ (pIC50 ≧ 6.00) | Clc1ccc(-c2nc3ccc(-c4ncon4)cn3c2CN2CCn3ncnc3C2)c(Cl)c1 [Compound 329]
34 | ++ (pIC50 5.00-5.99) | +++ (pIC50 ≧ 6.00) | CS(=O)(=O)N1CCN(Cc2c(-c3ccc(Cl)cc3Cl)nc3cnc(C4CC4)cn23)CC1 [Compound 330]
35 | +− (pIC50 < 4.00) | +− (pIC50 < 4.00) | CC(=O)N1CCN(Cc2c(-c3ccc(Cl)cc3)nc3cnc(NS(C)(=O)=O)cn23)CC1 [Compound 331]
36 | ++ (pIC50 5.00-5.99) | +++ (pIC50 ≧ 6.00) | CS(=O)(=O)Nc1ccc2nc(-c3ccc(Cl)cc3)c(CN3CCn4ncnc4C3)n2c1 [Compound 337]
37 | +++ (pIC50 ≧ 6.00) | +++ (pIC50 ≧ 6.00) | O=C(C1COC1)N1CCN(Cc2c(-c3ccc(Cl)cc3Cl)nc3ccc(-c4ncon4)cn23)CC1 [Compound 338]
38 | ++ (pIC50 5.00-5.99) | +− (pIC50 < 4.00) | Clc1ccc(-c2nc3ccc(-c4ccccc4)cn3c2CCN2CCOCC2)cc1 [Compound 342]

Row | Structure (SMILES) | GLUT2 pIC50 [1] | GLUT1 pIC50 [2]
39 | Clc1ccc(-c2nc3ccc(C4COC4)cn3c2CN2CCOCC2)cc1 [Compound 298] | +− (pIC50 < 4.00) | ++ (pIC50 5.00-5.99)
40 | O=C(Cc1c(-c2ccc(Cl)cc2)nc2ccc(-c3ccccc3)cn12)N1CCOCC1 [Compound 301] | ++ (pIC50 5.00-5.99) | +− (pIC50 < 4.00)
